In patent US20130101628A1 (NORTHWESTERN UNIVERSITY, priority 2011, published 2013):
* marks the point of attachment. Palmitoyl = CCCCCCCCCCCCCCCC(=O)*

Experiments:
ischemic hind-limb = assay: Murine hind-limb ischemia (HLI) model; format: in vivo, mice; details: for limb motor function score / tissue (limb) salvage score: single i.m. injection 25 μl of 2 mM; for limb motor function score: grade 1-5; for tissue (limb) salvage score: grade 1-6
Method: For the HLI procedure, eight week old male FVB wild-type mice (Charles River) were anesthetized by intraperitoneal injection of avertin (125 mg/kg). By means of a dissecting microscope, the femoral nerve was carefully separated from the vessel bundle. The right femoral artery was ligated and excised, including all superficial and deep branches. Critical limb ischemia was immediately verified by laser Doppler imaging (LDPI, MoorLDI-SIM, Moor Instruments, Ltd) to ensure the ratio (ischemic/non-ischemic limb) was ≦0.20. At postoperative day 3, outliers with low ischemia were triaged based on LDPI (ratio ischemic/nonischemic 0.30) as were outliers with extreme ischemia (necrotic demarcation of entire limb), determined by macroscopic evaluation. […] For follow-up, animals underwent reevaluations with LDPI at postoperative day 7, 14, and 28 before animals were sacrificed (CO, asphyxia) for tissue harvest at day 28. At each time-point, tissue perfusion was measured via LDPI, measuring blood flow in both the ischemic and non-ischemic limb and reporting results as the ratio of these two measurements. All LDPI measurements were taken on a 37° C. heating pad to control body temperature. In addition, motor function and tissue damage was semi-quantitatively assessed on post-operative day 7, 14, 21 and 28 by established scoring systems. Tissue damage in the ischemic limb (limb salvage score) was graded as full recovery (grade 6), minor necrosis or nail loss (grade 5), partial toe amputation (grade 4), total toe amputation (grade 3), partial/total foot amputation (grade 2) or partial/total limb amputation (grade 1) (modified from). Limb motor function was graded as unrestricted (grade 5), no active use of toe(s) or spreading (grade 4), restricted foot use (grade 3), no use of foot (grade 2) or no use of limb at all (grade 1) (modified from). Finally, walking capacity was measured via a Rota Rod apparatus. […] The mean of two assessments was used as for failure time for each animal. At day 28, muscle tissue from the ischemic limb was harvested, fixed in methanol, paraffin-embedded, and cross-sectioned (6-μm) for histological immunostaining. Briefly, sections were blocked with 10% donkey serum (30 min, RT). Primary antibodies were diluted in PBS containing BSA, and applied to tissue slices for 2 hrs at 37° C. Sections were stained for CD31, an endothelial-specific marker, using rat anti-CD31 antibodies (BD Pharmingen Inc) and smooth-muscle α-actin (αSMA), a vascular smooth muscle marker, using rabbit-anti-αSMA (Sigma-Aldrich Co.). For immunofluorescent detection, primary antibodies were resolved with Alexa-Fluor-conjugated secondary antibodies (Invitrogen Corporation, Carlsbad, Calif., USA dilution) and nuclei were counterstained with DAPI (Research Organics). Slides were imaged using fluorescent microscopy (Zeiss), and CD31+capillary forms and CD31+/sMA+]mature microvessels/arterioles were quantified in 3 separate high-power fields (20×) from 3 independent sections in each animal (9 images/animal). All error bars indicate the standard error of the mean. Differences between groups were determined using a one-way analysis of variance (ANOVA) with a Bonferroni multiple comparisons post-hoc test using GraphPad InStat v3.0b. […] VEGF-PA or control treatments were administered by an intramuscular injection three days following the induction of critical ischemia by ligation and excision of the right femoral artery and all superficial and deep branches, as described above. Animals were assessed serially throughout the study for motor function and limb salvage and Laser Doppler perfusion imaging (LDPI) was used to assess tissue perfusion. At the end of the study, exercise endurance was recorded on a Rota Rod treadmill and tissue was harvested for immunohistological staining of capillaries to observe effects on the microcirculation.

HUVECs [1] = assay: HUVEC proliferation (CyQUANT-NF cell number); format: cell-based, human; details: 1 μM in EGM, 48 hours; untreated control 100.0%
Method: In vitro studies were performed using HUVECs, a primary endothelial cell that is VEGF-responsive and frequently used as a model endothelial cell for angiogenesis studies in vitro [31].
To evaluate proliferation, HUVECs were plated at 5000 per well in a 96 well plate. […] Additionally, unsupplemented growth media was used as a control. After 48 hours, cell number was quantified using CyQUANT-NF (Invitrogen) and a standard fluorescent microplate reader. Cell number is expressed relative to the group treated with unsupplemented growth media.

[2] = biological target: T1, VEGF receptor 1 (VEGFR1 or Flt-1) (Homo sapiens, UniProt P17948); assay: Sandwich ELISA of phosphorylated VEGFR1 in lysates of stimulated HUVEC; format: cell-based; details: HUVEC time-course 0-60 minutes; falls below untreated baseline
T1 construct: host or cells: HUVEC
Method: (§1) Human umbilical vein endothelial cells (HUVECs) and complete endothelial cell growth media (EGM) were purchased (Genlantis, San Diego, Calif.), passaged two times following receipt, and cryo-preserved in media with 5% DMSO. Cells were thawed as needed and grown to confluence in a […] flasks (VWR Falcon) prior to plating for experiments.
(§2) Phosphorylation of both VEGFRI and VEGFR2 was assayed using commercially available assay kit (R&D Systems, Minneapolis, Minn.) following the recommended protocol. First, confluent HUVECs plated in 24 well plates were starved for 5 hours in serum-free defined media (SFDM, Genlantis) specifically designed to maintain cells in a growth factor-free setting for growth factor signaling and metabolic assays. Following starvation, the various treatments were dissolved in SFDM to a concentration of 1 μM. […] Cells were exposed to treatment for 2 minutes. To evaluate the time-course of phosphorylation the same protocol was followed and cells were exposed to VEGF-PA for 0, 1, 3, 5, 10, 15, 20, 25, 30, 40, 50, and 60 minutes.

HUVECs [3] = assay: HUVEC survival after serum-starvation (Annexin V-PE apoptosis); format: cell-based, human; details: 1 μM in EBM, serum-starvation 24 hours; untreated 31.7%
Method: To evaluate cell survival, endothelial basal media (EBM) without growth factors (Lonza) was used to induce a serum-starvation. Cells were plated in 12 well plates and grown to confluence with standard growth media. […] Cells were grown in these conditions for 24 hours. Survival was quantified using Annexin V: PE staining with 7-AAD vital staining (BD Biosciences) following provided assay instructions and analyzed on a DakoCytomation CyAn. Survival was assessed by determining the fraction of cells that were apoptotic (Annexin V-PE positive).

[4] = biological target: T2, VEGF receptor 2 (VEGFR2 or KDR) (Homo sapiens, UniProt P35968); assay: Sandwich ELISA of phosphorylated VEGFR2 in lysates of stimulated HUVEC; format: cell-based
T2 construct: host or cells: HUVEC
Method: as §1, §2

T2 sequence (P35968 20-1356): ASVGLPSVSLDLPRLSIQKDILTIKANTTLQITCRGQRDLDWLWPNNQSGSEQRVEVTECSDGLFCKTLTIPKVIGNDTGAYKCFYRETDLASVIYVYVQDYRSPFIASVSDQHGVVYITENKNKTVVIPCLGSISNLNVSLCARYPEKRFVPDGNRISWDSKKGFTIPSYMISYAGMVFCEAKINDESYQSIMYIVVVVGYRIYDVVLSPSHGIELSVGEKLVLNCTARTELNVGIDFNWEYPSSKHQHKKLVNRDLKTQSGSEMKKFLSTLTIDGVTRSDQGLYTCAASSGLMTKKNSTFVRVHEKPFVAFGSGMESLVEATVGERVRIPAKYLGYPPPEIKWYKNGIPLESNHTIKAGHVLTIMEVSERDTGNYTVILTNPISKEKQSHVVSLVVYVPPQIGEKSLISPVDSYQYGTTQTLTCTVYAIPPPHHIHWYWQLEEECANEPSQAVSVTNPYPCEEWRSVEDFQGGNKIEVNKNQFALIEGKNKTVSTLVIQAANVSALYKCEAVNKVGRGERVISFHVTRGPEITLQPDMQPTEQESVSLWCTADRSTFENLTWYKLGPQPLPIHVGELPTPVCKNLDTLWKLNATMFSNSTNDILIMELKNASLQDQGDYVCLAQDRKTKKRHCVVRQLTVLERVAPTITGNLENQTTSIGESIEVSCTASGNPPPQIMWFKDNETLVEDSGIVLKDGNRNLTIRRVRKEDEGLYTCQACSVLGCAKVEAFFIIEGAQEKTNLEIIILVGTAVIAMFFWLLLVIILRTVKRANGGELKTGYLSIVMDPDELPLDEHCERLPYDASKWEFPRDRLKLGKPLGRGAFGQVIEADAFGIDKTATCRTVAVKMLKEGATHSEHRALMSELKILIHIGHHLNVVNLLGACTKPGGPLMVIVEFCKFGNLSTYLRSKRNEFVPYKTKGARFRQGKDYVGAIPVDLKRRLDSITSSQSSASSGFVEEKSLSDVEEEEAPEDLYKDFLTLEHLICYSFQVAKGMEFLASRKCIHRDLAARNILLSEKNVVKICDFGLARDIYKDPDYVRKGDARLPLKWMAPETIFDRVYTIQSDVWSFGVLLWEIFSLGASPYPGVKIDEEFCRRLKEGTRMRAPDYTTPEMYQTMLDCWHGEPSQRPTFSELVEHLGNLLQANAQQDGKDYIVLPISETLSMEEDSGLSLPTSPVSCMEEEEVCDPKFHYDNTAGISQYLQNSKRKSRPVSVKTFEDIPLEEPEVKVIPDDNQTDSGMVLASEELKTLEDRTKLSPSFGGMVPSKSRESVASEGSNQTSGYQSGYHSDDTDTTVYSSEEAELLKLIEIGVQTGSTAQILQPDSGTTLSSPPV
T1 sequence (P17948 27-1338): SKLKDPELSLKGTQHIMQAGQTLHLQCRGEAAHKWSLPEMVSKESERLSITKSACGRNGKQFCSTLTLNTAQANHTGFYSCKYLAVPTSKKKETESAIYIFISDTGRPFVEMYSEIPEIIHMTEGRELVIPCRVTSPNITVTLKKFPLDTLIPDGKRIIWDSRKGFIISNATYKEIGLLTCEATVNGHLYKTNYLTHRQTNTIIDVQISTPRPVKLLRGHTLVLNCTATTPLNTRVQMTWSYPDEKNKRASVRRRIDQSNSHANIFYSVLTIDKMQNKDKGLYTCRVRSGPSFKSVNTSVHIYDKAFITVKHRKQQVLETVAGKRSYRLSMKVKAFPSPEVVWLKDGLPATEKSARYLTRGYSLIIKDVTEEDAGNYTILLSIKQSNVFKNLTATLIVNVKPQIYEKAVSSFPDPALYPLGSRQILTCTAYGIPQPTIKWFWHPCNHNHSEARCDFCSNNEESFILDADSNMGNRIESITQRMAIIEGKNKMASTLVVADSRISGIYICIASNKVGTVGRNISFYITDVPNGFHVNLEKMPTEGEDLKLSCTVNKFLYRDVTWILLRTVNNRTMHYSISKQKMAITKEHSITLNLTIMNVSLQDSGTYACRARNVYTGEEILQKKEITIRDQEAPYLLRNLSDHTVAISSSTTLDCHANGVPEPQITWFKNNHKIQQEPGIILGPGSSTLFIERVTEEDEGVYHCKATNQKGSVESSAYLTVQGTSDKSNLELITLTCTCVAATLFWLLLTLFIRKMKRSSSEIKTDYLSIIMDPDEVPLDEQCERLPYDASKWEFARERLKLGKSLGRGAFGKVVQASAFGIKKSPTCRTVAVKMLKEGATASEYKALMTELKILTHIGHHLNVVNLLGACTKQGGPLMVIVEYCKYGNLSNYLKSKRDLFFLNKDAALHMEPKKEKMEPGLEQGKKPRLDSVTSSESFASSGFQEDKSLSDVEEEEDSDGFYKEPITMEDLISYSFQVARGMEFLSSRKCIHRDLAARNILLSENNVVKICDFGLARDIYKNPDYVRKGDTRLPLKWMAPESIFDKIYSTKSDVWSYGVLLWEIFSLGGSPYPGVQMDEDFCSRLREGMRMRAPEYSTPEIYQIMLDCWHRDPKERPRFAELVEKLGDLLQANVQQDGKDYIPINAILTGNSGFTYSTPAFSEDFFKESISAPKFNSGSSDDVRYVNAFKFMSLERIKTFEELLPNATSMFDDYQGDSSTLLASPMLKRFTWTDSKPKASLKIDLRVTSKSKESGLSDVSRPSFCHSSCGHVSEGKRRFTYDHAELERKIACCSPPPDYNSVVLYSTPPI

## CH3(CH2)14C(O)— VVAAKKKGKLTWQELYQLKYKGI-NH2 (Palmitoyl-VVAAKKKGKLTWQELYQLKYKGI-NH2; SMILES CCCCCCCCCCCCCCCC(=O)N[C@H](C(=O)N[C@H](C(=O)N[C@@H](C)C(=O)N[C@@H](C)C(=O)N[C@@H](CCCCN)C(=O)N[C@@H](CCCCN)C(=O)N[C@@H](CCCCN)C(=O)NCC(=O)N[C@@H](CCCCN)C(=O)N[C@@H](CC(C)C)C(=O)N[C@H](C(=O)N[C@@H](Cc1c[nH]c2ccccc12)C(=O)N[C@@H](CCC(N)=O)C(=O)N[C@@H](CCC(=O)O)C(=O)N[C@@H](CC(C)C)C(=O)N[C@@H](Cc1ccc(O)cc1)C(=O)N[C@@H](CCC(N)=O)C(=O)N[C@@H](CC(C)C)C(=O)N[C@@H](CCCCN)C(=O)N[C@@H](Cc1ccc(O)cc1)C(=O)N[C@@H](CCCCN)C(=O)NCC(=O)N[C@H](C(N)=O)[C@@H](C)CC)[C@@H](C)O)C(C)C)C(C)C) [VEGF-PA]
Ischemic hind-limb; 14 days after induction of ischemia
  LDPI perfusion ratio (ischemic/non-ischemic limb): 0.76±0.05
Ischemic hind-limb; day 21
  limb motor function score: 3.89±0.12
  tissue (limb) salvage score: 4.21±0.21
Ischemic hind-limb; day 28
  LDPI perfusion ratio (ischemic/non-ischemic limb): 0.72±0.05
  limb motor function score: 4.21±0.16
  tissue (limb) salvage score: 4.21±0.21
Ischemic hind-limb; day 28, saline 90.4 seconds
  Rota Rod walking time prior to failure: 150.5 ± 9.5 s
Ischemic hind-limb; tissue harvested at day 28
  effect on the number of CD31+/smooth muscle actin+ arterioles: no effect
Ischemic hind-limb; tissue harvested at day 28, saline 893/mm2
  number of CD31+ capillaries in ischemic limb muscle: 1582±76 /mm2
HUVECs [1]
  proliferation (cell number relative to unsupplemented growth media): 137.0%±2.4%
[2]
  time of stimulation at which phosphorylated VEGFR1 begins to decrease after initial rise: 10 min
HUVECs [3]
  fraction of apoptotic cells (Annexin V-PE positive): 10.2%±3.2%
[4]; HUVEC time-course 0-60 minutes, falls below untreated baseline
  time of stimulation at which phosphorylated VEGFR2 begins to decrease after initial rise: 10 min
[4]; HUVEC, 1 μM, 2 minutes exposure, untreated control 1.000±0.109
  VEGFR2 phosphorylation level relative to untreated control: 1.581±0.050
